The values below come from US10004222B2, “Small molecule ice recrystallization inhibitors and methods of use thereof” (THE UNIVERSITY OF OTTAWA, priority 2012, dated 2018).

Series [1] relates to CD34+ cells (hematopoietic stem cells). Kind of series: colony forming unit (CFU) assay after cryopreservation of umbilical cord blood. The format is cell-based, human. As for the experimental part: (§1) Aliquots of LC (50,000 CD34^+ cells) are added to 2.0 mL cryovials. For each experiment, four cryovials are prepared (two for post-thaw viability analysis using flow cytometry and two for functionality analysis using the colony forming unit assay). Cryovials are kept on ice until placement in −80° C. freezer. Cryovials are centrifuged at 400 g and 10° C. for 5 minutes to pellet cells. After centrifugation, the time taken until placement in −80° C. freezer should not exceed 10 minutes. Supernatant is removed by aspiration or by decanting, but preferably by aspiration. Plasma (volume depends on desired cryosolution concentration) is added and cells are suspended by pipetting. Pre-made cryosolutions (see Cryosolutions) are added (volume depends on desired cryosolution concentration) and mixed by pipetting. Cryovials are placed in a Mr. Frosty® rate controlled freezing container which is then placed in a −80° C. freezer for 24 hours. By placing the cryovials in the freezing container, their contents undergo a cooling rate of about −1° C. per minute. After 24 hours, the cryovials are transferred to a liquid nitrogen dewar for storage until thawed for analysis.
(§2) Cryosolutions are prepared in distilled autoclaved water supplemented with 0.9% saline and 5% dextran for cryopreservation experiments and diluted with different volumes of plasma in cryovials depending on desired concentration of ice recrystallization inhibitor. N-(4-chlorophenyl)-D-gluconamide (4a) and N-(2-fluorophenyl)-D-gluconamide (2a) are prepared at 25 mM and N-(4-methoxyphenyl)-D-gluconamide (3a) and N-(2,6-difluorobenzyl)-D-gluconamide (1b) are prepared at 55 mM. 100, 50, 33 or 20 μL of 25 mM N-(4-chlorophenyl)-D-gluconamide (4a) or N-(2-fluorophenyl)-D-gluconamide (2a) are added to cryovials containing 50,000 CD34^+ cells suspended in 0, 50, 67, or 80 μL of plasma, respectively, for a final IRI concentration of 25, 12.5, 8 or 5 mM, respectively. 100, 50, 33 or 20 μL of 55 mM N-(4-methoxyphenyl)-D-gluconamide (3a) or N-(2,6-difluorobenzyl)-D-gluconamide (1b) are added to cryovials containing 50,000 CD34^+ cells suspended in 0, 50, 67, or 80 μL of plasma, respectively, for a final IRI concentration of […], 18 or 11 mM, respectively.
Cryovials are thawed in a 37° C. water bath and diluted with 900 μL of IMDM (10% FBS, 1% penicillin/streptomycin). Cryovials are placed on ice until washed. Samples are mixed by pipetting and 80 μL is transferred to a 15 mL Falcon tube. 5 mL of Iscove's Modified Dulbecco's Medium (IMDM) supplemented with 10% fetal bovine serum (FBS) is added and this mixture is centrifuged at 1100 rpm for six minutes to yield a cell pellet and a supernatant. The supernatant is removed by aspiration and the cell pellet is resuspended in 1 mL IMDM (2% FBS) to form a suspension. The suspension is mixed by pipetting. 150 μL of this cell suspension is added to 3 mL Methocult™ media and plating is performed in accordance with manufacturer's instruction. The suspension with Methocult™ media is mixed adequately by vortexing for 20 seconds. The contents are allowed to settle and bubbles are allowed to subside before plating (approximately 5-10 minutes). Using a 3 mL syringe and 16 gauge blunt needles, 2.5 mL of the cell suspension in Methocult™ is taken from the bottom. 1 mL of this 2.5 mL is added to two 5 mL cell culture dishes. The dishes are swirled to ensure cells in Methocult™ medium coat the entire bottom of the dish. A third 5 mL dish is prepared to contain distilled autoclaved water without a lid. These three 5 mL dishes are placed in a 100 mL plate; two 5 mL dishes contain 1 mL of cell suspension in Methocult™ medium with the lid on and one containing distilled autoclaved water with the lid off. The lid is placed on the 100 mL plate and stored in a 37° C. incubator (5% CO2) for two weeks.

In a further series the test system is Tf1-α cells. Briefly: cryopreservation of Tf1-α cells, viability/apoptosis by flow cytometry (7-AAD, Annexin V). The format is cell-based. The settings on record: stored at −196° C. for 48 hours. As for the experimental part:
Tf1-α cells were cultured to a final concentration of 2-3×10^6 cells/mL. Three million cells were transferred into cryovials and media were removed by aspiration after centrifugation at 1000 rpm for five minutes. 100 μL of RPMI media (10% FBS) supplemented with the cryopreservative of interest was added to the cryovial and vortexed. The cryovials were cooled at a rate of −1° C./min for 24 hours to −80° C. before being transferred to a liquid nitrogen dewar for storage until analysis.
Cryovials were thawed under fast thaw conditions (submerged in 37° C. water bath). The cells were then diluted to a concentration of 3×10^6 cells/mL with 1× Annexin V Binding Buffer and a cell count was obtained by hemacytometer (to obtain cell recovery). A 400 μL aliquot was transferred to a flow cytommetry tube. 10 μL of each Annexin V FITC (for apoptosis) and 7-AAD (for viability) dyes were added, the tube was vortexed and allowed to incubate in the dark for 15 minutes. The solution was diluted to 1 mL with 1× Annexin V Binding Buffer, vortexed and analyzed by flow cytommetry. […] With 2% DMSO, cell viability reached about 45%, and with 10% DMSO, cell viability reached around 78%.

For series [2], the system named is CD34+ cells (hematopoietic stem cells). Kind of series: post-thaw viability of CD34+ cells of cryopreserved umbilical cord blood, flow cytometry. The format is cell-based, human. As for the experimental part: Whole umbilical cord blood (UCB) should be stored at room temperature (15-25° C.) and processed within 48 hrs of collection. UCB is removed from collection bag and spilt in equal parts into 50 mL Falcon tubes. No more than 25 mL of UCB should be added per Falcon tube. UCB is diluted with 6% hetastarch (Hespan) to obtain a final concentration of 1% hetastarch and incubated for 10 minutes at room temperature. The tubes are then centrifuged at 50 g at 10° C. for 15-20 minutes, depending on volume. The centrifuge should not brake to stop. For total volumes of 30 mL, 15-17 minute centrifugation is utilized and for total volumes of 35 mL, 17-20 minute centrifugation is utilized. The supernatant and buffy coat (plasma and leukocytes) are removed carefully (not collecting RBCs) from the tubes and collected into new 50 mL Falcon tubes. These tubes are centrifuged at 400 g and 10° C. for 10 mins to pellet cells. The centrifuge brake can now be utilized. Plasma is removed and kept in new 50 mL Falcon tubes on ice. The cell pellets resuspended and combined in plasma to a total volume of 20 mL to generate leukocyte concentrate (LC). The LC is kept on ice for the duration of its use. Total mononuclear (CD45^+) and CD34^+ (hematopoetic stem cells) cell concentrations and viability are determined by flow cytometry (see Flow Cytometry procedure below). Aliquots of LC (50,000 CD34^+ cells) are utilized for cryopreservation experiments (see Cryopreservation Experiments procedure below).
as §1, §2
Total mononuclear cell (CD45+) and progenitor cell (CD34+) viability is assessed by flow cytometry using International Society of Hematotherapy and Graft Engineering (ISHAGE) guidelines (J. Hematother. Stem Cell Res. 1996, 5, 213-226). […]
On the technique in general: In flow cytometry, cells or beads pass a laser one at a time.

For series [3] the following is noted: previously demonstrated; cited from earlier work.
The test system of series [4] is human embryonic liver cells. The settings on record: compared with DMSO; cited from earlier work.
The conditions of series [5]: previously demonstrated; cited from earlier work. The source holds these as a separate data set.
Series [6] is described as follows: thermal hysteresis (TH) activity and dynamic ice shaping, Clifton Nanoliter Osmometer. The settings on record: 0.01 mg/mL. The procedure:
As both compound 4 (at 22 mM) and compound 5 (at 0.5 mM) are novel potent low molecular weight inhibitors of ice recrystallization, whether they were interacting directly with the ice lattice was investigated. Carbohydrate derivatives (compounds 3-6) were examined for TH activity using a Clifton Nanoliter Osmometer. See Tam, R. et al. (2009) “Solution Conformation of C-Linked Antifreeze Glycoprotein Analogues and Modulation of Ice Recrystallization” J. Am. Chem. Soc. 131:15747-15753; Tam, R. et al. (2008) “Hydration Index—A Better Parameter for Explaining Small Molecule Hydration in Inhibition of Ice Recrystallization” J. Am. Chem. Soc. 130: 17494-17501.
In this assay a single droplet of the sample in water was suspended in the center of an oil-filled well in a sample holder plate. The sample was then rapidly frozen using a thermoelectrically controlled microscope stage, then the temperature was raised and the sample melted until only a single ice crystal remained. Once a single ice crystal was obtained, its growth and behavior upon increasing/decreasing the temperature was viewed under a microscope.
The above synthesized C-linked AFGP analogues and carbohydrate derivatives were assessed for TH activity at 10 mg/mL. Compounds 3-6 could not be assessed for TH activity at this concentration due to their amphiphilic nature. […]

Series [7] is described as follows: splat cooling ice recrystallization inhibition (IRI) assay. To be noted: 0.5 mM. As for the experimental part: In this assay, the area of ice crystals are measured after a 30 minute annealing time at −6.4° C. and compared to a positive control for ice recrystallization resulting in a quantitative measurement of the mean ice grain size. For a positive control, a phosphate buffered saline (PBS) solution was utilized. All samples were normalized to the PBS positive control. The ice recrystallization inhibition activity of the carbohydrate-based non-ionic surfactants n-octyl-β-D-glucopyranoside (compound 3) and n-octyl-β-D-galactopyranoside (compound 4) is shown in FIG. 1.
In this assay, the area of ice crystals are measured after a 30 minute annealing time at −6.4° C. and compared to a positive control for ice recrystallization resulting in a quantitative measurement of the mean ice grain size. For a positive control, a PBS solution was utilized. All samples were normalized to the PBS positive control.
N-aryl-D-gluconamides (3a), (2a), (4a), and (1b) are a class of low molecular weight carbohydrate-based compounds. The ice recrystallization inhibition activity of (3a), (2a), (4a), and (1b) was assessed using a “splat cooling” assay. In this assay, the area of ice crystals are measured after a 30 minutes annealing time at −6.4° C. and compared to a positive control for ice recrystallization resulting in a quantitative measurement of the mean ice grain size. For a positive control, PBS was utilized. All samples were normalized to the PBS positive control.

A short description of series [8]: solubility and gelation in water, PBS. The series is classed as physicochemical.
Setting [9] is: 10% DMSO (⅕ dilution with plasma), UCB Unit 27.
The mark [10] stands for this setting: 10% DMSO (⅕ dilution with plasma), UCB Unit 28.
The mark [11] stands for this setting: 10% DMSO only, IRI None, post-thaw, 14 days in Methocult.

Several values for one entry are separate records, joined by “and”; a condition that tells them apart may be missing. Equal entries are not always repeated. Where two headings read alike, the source gives them in different places. Non-standard residues stand in square brackets, D forms with d. Residues, ends and D or L forms follow the SMILES beside them. *: point of attachment. X1 = O=C(C[C@H]1OC(CO)[C@H](O)[C@H](O)C1O)*; Orn = NCCC[C@H](N)C(=O)O

As to `C[S+](C)[O-]` [DMSO, Dimethyl sulfoxide, reference compound], the “Tot. No. Colonies” value was 47 and 34 in series [1] (10% DMSO (no plasma)); 56 and 35 in series [1] (setting [9]); 36 in [1] (setting [10]). In [1] (setting [11]), this compound showed a BFU-E of 15.6. In addition, the CFU-G in series [1] (setting [11]) was determined as 5.1. The compound also displayed a CFU-GEMM in series [1] (setting [11]) of 2.8. In [1] (setting [11]), this compound yielded a CFU-GM of 6.8. Besides, the CFU-M in series [1] (setting [11]) is 0.7. Moreover, the “Total Number of Colonies” value in [1] (setting [11]) is 31. Further, in [1] (average of control solutions), the “Tot. No. Colonies, AVG” value was determined as 28. The cell viability result is given as “about 45%” with Tf1-α cells (2% DMSO alone) and “around 78%” with Tf1-α cells (10% DMSO alone). The entries for the “Post-Thaw Viab.” value in [2] (10% DMSO (no plasma)), in series [2] (setting [9]) and in series [2] (setting [10]) were 83%, 88% and 87%, respectively.
As to `N[C@@H](CCCNC(=O)C[C@H]1OC(CO)[C@H](O)[C@H](O)C1O)C(=O)NCC(=O)NCC(=O)N[C@@H](CCCNC(=O)C[C@H]1OC(CO)[C@H](O)[C@H](O)C1O)C(=O)NCC(=O)NCC(=O)N[C@@H](CCCNC(=O)C[C@H]1OC(CO)[C@H](O)[C@H](O)C1O)C(=O)NCC(=O)NCC(=O)N[C@@H](CCCNC(=O)C[C@H]1OC(CO)[C@H](O)[C@H](O)C1O)C(=O)NCC(=O)NCC(=O)NCC(=O)O` (some centres unmarked) [analog 1] (H-[Orn](X1)GG[Orn](X1)GG[Orn](X1)GG[Orn](X1)GGG-OH), the “ice recrystallization inhibition activity” value in series [3] is recorded as “potent inhibitors of ice recrystallization”. In addition, the cryoprotective ability result in series [4] is reported as “as effective as a 2.5% solution of DMSO”. The TH activity result in series [5] is on record as “do not exhibit TH activity”.
With `N[C@@H](CC[C@H]1OC(CO)[C@H](O)[C@H](O)C1O)C(=O)NCC(=O)NCC(=O)N[C@@H](CC[C@H]1OC(CO)[C@H](O)[C@H](O)C1O)C(=O)NCC(=O)NCC(=O)N[C@@H](CC[C@H]1OC(CO)[C@H](O)[C@H](O)C1O)C(=O)NCC(=O)NCC(=O)N[C@@H](CC[C@H]1OC(CO)[C@H](O)[C@H](O)C1O)C(=O)NCC(=O)NCC(=O)NCC(=O)O` (some centres unmarked) [analog 2], in series [3], the “ice recrystallization inhibition activity” value was “potent inhibitors of ice recrystallization”. The TH activity entry in series [5] is “do not exhibit TH activity”.
Regarding `CCCCCCCCNC(=O)[C@H](O)[C@@H](O)[C@H](O)[C@H](O)CO` [compound 5, N-octyl-D-gluconamide], the dynamic ice shaping entry in [6] is “do not exhibit this activity”. Moreover, the “ice recrystallization inhibition activity” value in series [7] was “potent”. Further, the solubility entry in series [8] was “poor solubilities”.
In the same order, the values of `CCCCCCCCNC(=O)[C@H](O)[C@@H](O)[C@@H](O)[C@H](O)CO` [compound 6, N-octyl-D-galactonamide] are “do not exhibit this activity”, “only moderate” and “poor solubilities”.
